# Assay results taken from publication PMC8396812, “Aphid Odorant-Binding Protein 9 Is Narrowly Tuned to Linear Alcohols and Aldehydes of Sixteen Carbon Atoms” (Insects, 2021).
# Target: T1, ApisOBP9 (Acyrthosiphon pisum, UniProt A0A8R1TD77)
# T1 construct: pET30, E. coli, N-terminal His-tag removed with enterokinase
# T1 sequence (A0A8R1TD77 25-165): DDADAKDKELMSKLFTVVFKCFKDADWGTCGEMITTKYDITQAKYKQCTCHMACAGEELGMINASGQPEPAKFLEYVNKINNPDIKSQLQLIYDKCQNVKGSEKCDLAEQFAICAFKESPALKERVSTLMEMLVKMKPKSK
# Experiment: biochemical
# Parameters: competitive displacement of 1-NPN fluorescence from recombinant OBP9, Kd calculated from IC50
# Settings: read-out: ApisOBP9-WT
# Experimental: Affinity constants were evaluated by the competitive fluorescent method, using a PerkinElmer FL 6500 spectrofluorometer in a right-angle configuration at room temperature and quartz cuvettes with a 1 cm path. The fluorescent probe N-phenyl-1-naphthylamine (1-NPN) was excited at 337 nm, and emission spectra were recorded between 380 and 450 nm. Binding of 1-NPN was evaluated by adding aliquots of a 1 mM methanol solution to reach final concentrations of 2–16 μM, to a 2 μM solution of the protein in 50 mM Tris-HCl buffer, pH 7.4. Intensity values were recorded at the peak maximum, around 412 nm. The dissociation constant of the complex protein/1-NPN was calculated using Prism software (https://www.graphpad.com/scientific-software/prism/, accessed on 10 February 2021). The affinities of other ligands were evaluated in competitive binding assays by adding aliquots of 1 mM methanol solutions of each ligand to final concentration values of 2 to 16 μM, to a mixture of the protein and 1-NPN, both at the concentration of 2 μM in 50 mM Tris-HCl buffer, pH 7.4. Dissociation constants of ligands were calculated from the corresponding [IC]50 values (the concentration of each ligand halving the initial value of fluorescence), using the equation:KD = [IC]50/1 + [1-NPN]/K1-NPN where [1-NPN] is the concentration of free 1-NPN, and K1-NPN the dissociation constant of the complex protein/1-NPN. All results of the binding experiments are reported in Figure 2 and in Supplementary Figures S1–S4, including those performed on a mutant (Lys37Leu), designed on the results obtained with the wild-type ApisOBP9. First, we measured the affinity of the protein to the fluorescent probe N-phenyl-1-naphthylamine (1-NPN), the most widely used with insect OBPs.
row,SMILES,Kd
1,CCCCCCCCCCCCCCO [1-Tetradecanol],3410 nM
2,CCCCCCCCCCCCO [1-Dodecanol],3790 nM
3,COc1cc(/C=C/C=O)ccc1O [coniferyl aldehyde],7890 nM
4,CC1=C(C=O)C(C)(C)CC=C1 [safranal],11400 nM
5,CCCC/C=C\CCCCCCCCCC=O [Z11-hexadecenal],1140 nM
6,CCCC/C=C\CCCCCCCC=O [(Z)-9-Tetradecenal],5310 nM
7,CCCC/C=C\CCCCCCCCCCO [Z11-1-hexadecenol],1370 nM
8,CCCC/C=C\CCCCCCOC(C)=O [(Z)-7-Dodecenyl acetate],1380 nM
9,CCCCCCCCCC(=O)O [Decanoic acid],14500 nM
10,CCCCCCCCCCCCCCCCO [1-hexadecanol],1900 nM
11,CCCCCC/C=C\CCCCCCCC=O [Z9-hexadecenal],1440 nM
12,CCCC/C=C\CCCCCCCCCCCC=O [(Z)-13-Octadecenal],2280 nM

# Target: T1, ApisOBP9
# Experiment: competitive displacement of 1-NPN fluorescence
# Format: binding
# Settings: 2 μM protein, 2 μM 1-NPN, 50 mM Tris-HCl pH 7.4, room temperature
row,SMILES,KD
1,COc1cc(/C=C/C=O)ccc1O [coniferyl aldehyde],with only coniferyl aldehyde and safranal showing moderate affinities
2,C=CC(=C)CC/C=C(\C)CCC=C(C)C [(E)-β-farnesene],"in our hands, ApisOBP9 showed some affinity to EBF"
3,CC1=C(C=O)C(C)(C)CC=C1 [safranal],with only coniferyl aldehyde and safranal showing moderate affinities
